Reference: PubChem BioAssay AID248 (DTP/NCI, 2004)
Values joined by “and” are separate entries in the source; they are usually repeats but may differ in a detail not shown here. Identical values can stand only once. Inconclusive results and toxic doses are left out. No stated cut-off is given here; in the data, active means T/C of 150% or more; inactive means T/C below 125%.

System: L1210 leukemia ip in BDF1 mice, survival T/C
Experiment: NCI In Vivo Anticancer Drug Screen. Data for tumor model L1210 Leukemia (intraperitoneal) in B6D2F1 (BDF1) mice
Details: higher = longer survival
How it was run: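 Mice bearing the transplanted tumor received compound or vehicle. Survival of the treated group was divided by that of the vehicle-treated control group to give the ratio.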

[1] = endpoint: mean survival time, dose: 100.0 mg/kg/injection, schedule: Q01DX009 (ip), vehicle: Klucel (hydroxypropylcellulose) (HPC)
[2] = endpoint: mean survival time, dose: 100.0 mg/kg/injection, schedule: Q04DX003 (ip), vehicle: Klucel (hydroxypropylcellulose) (HPC)
[3] = endpoint: mean survival time, dose: 200.0 mg/kg/injection, schedule: Q01DX009 (ip), vehicle: Klucel (hydroxypropylcellulose) (HPC)
[4] = endpoint: mean survival time, dose: 200.0 mg/kg/injection, schedule: Q04DX003 (ip), vehicle: Klucel (hydroxypropylcellulose) (HPC)
[5] = endpoint: mean survival time, dose: 400.0 mg/kg/injection, schedule: Q01DX009 (ip), vehicle: Klucel (hydroxypropylcellulose) (HPC)
[6] = endpoint: mean survival time, dose: 400.0 mg/kg/injection, schedule: Q04DX003 (ip), vehicle: Klucel (hydroxypropylcellulose) (HPC)
[7] = endpoint: mean survival time, dose: 100.0 mg/kg/injection, schedule: Q01DX001 (ip), vehicle: saline
[8] = endpoint: mean survival time, dose: 100.0 mg/kg/injection, schedule: Q04DX003 (ip), vehicle: saline
[9] = endpoint: mean survival time, dose: 100.0 mg/kg/injection, schedule: Q04DX002 (ip), vehicle: Klucel (hydroxypropylcellulose) (HPC)
[10] = endpoint: mean survival time, dose: 200.0 mg/kg/injection, schedule: Q04DX002 (ip), vehicle: Klucel (hydroxypropylcellulose) (HPC)
[11] = endpoint: mean survival time, dose: 400.0 mg/kg/injection, schedule: Q04DX002 (ip), vehicle: Klucel (hydroxypropylcellulose) (HPC)
[12] = endpoint: mean survival time, dose: 100.0 mg/kg/injection, schedule: Q01DX009 (ip), vehicle: saline
[13] = endpoint: mean survival time, dose: 200.0 mg/kg/injection, schedule: Q01DX009 (ip), vehicle: saline
[14] = endpoint: mean survival time, dose: 200.0 mg/kg/injection, schedule: Q04DX003 (ip), vehicle: saline
[15] = endpoint: mean survival time, dose: 400.0 mg/kg/injection, schedule: Q01DX009 (ip), vehicle: saline
[16] = endpoint: mean survival time, dose: 400.0 mg/kg/injection, schedule: Q04DX003 (ip), vehicle: saline
[17] = endpoint: mean survival time, dose: 100.0 mg/kg/injection, schedule: Q01DX001 (ip), vehicle: carboxymethylcellulose (CMC)
[18] = endpoint: mean survival time, dose: 200.0 mg/kg/injection, schedule: Q01DX001 (ip), vehicle: carboxymethylcellulose (CMC)
[19] = endpoint: mean survival time, dose: 400.0 mg/kg/injection, schedule: Q01DX001 (ip), vehicle: carboxymethylcellulose (CMC)
[20] = endpoint: mean survival time, dose: 100.0 mg/kg/injection, schedule: Q01DX009 (ip), vehicle: saline with Tween-80
[21] = endpoint: mean survival time, dose: 200.0 mg/kg/injection, schedule: Q01DX009 (ip), vehicle: saline with Tween-80
[22] = endpoint: mean survival time, dose: 200.0 mg/kg/injection, schedule: Q01DX001 (ip), vehicle: saline
[23] = endpoint: mean survival time, dose: 400.0 mg/kg/injection, schedule: Q01DX001 (ip), vehicle: saline

Measured: T/C

Cc1cc(C)c2c(c1C)OC(C)(C)C=C2
inactive: [1] 98 % of control | [2] 98 % of control | [3] 100 % of control | [4] 107 % of control | [5] 97 % of control | [6] 100 % of control

c1ccc2occc2c1
inactive: [7] 103 % of control

CC(=N)c1ccc(C)cc1
inactive: endpoint: mean survival time, dose: 6.25 mg/kg/injection, schedule: Q01DX009 (ip), vehicle: saline with Tween-80 94 % of control | endpoint: mean survival time, dose: 12.5 mg/kg/injection, schedule: Q01DX009 (ip), vehicle: saline with Tween-80 96 % of control | endpoint: mean survival time, dose: 25.0 mg/kg/injection, schedule: Q01DX009 (ip), vehicle: saline with Tween-80 102 % of control

N#CCCCCCCN=[N+]=[N-]
inactive: endpoint: mean survival time, dose: 37.5 mg/kg/injection, schedule: Q04DX003 (ip), vehicle: saline 106 % of control | endpoint: mean survival time, dose: 75.0 mg/kg/injection, schedule: Q04DX003 (ip), vehicle: saline 101 % of control | endpoint: mean survival time, dose: 150.0 mg/kg/injection, schedule: Q04DX003 (ip), vehicle: saline 102 % of control

CCCCCCCCN1CCCNCC1
inactive: endpoint: mean survival time, dose: 6.25 mg/kg/injection, schedule: Q01DX009 (ip), vehicle: saline 96 % of control | endpoint: mean survival time, dose: 12.5 mg/kg/injection, schedule: Q01DX009 (ip), vehicle: saline 102 % of control | endpoint: mean survival time, dose: 25.0 mg/kg/injection, schedule: Q01DX009 (ip), vehicle: saline 96 % of control | endpoint: mean survival time, dose: 25.0 mg/kg/injection, schedule: Q04DX003 (ip), vehicle: saline 121 % of control | endpoint: mean survival time, dose: 50.0 mg/kg/injection, schedule: Q04DX003 (ip), vehicle: saline 109 % of control | [8] 87 % of control

Cc1ccc(N2C(=O)CSC2=S)cc1F
inactive: [9] 96 % of control | [10] 104 % of control | [11] 101 % of control

COc1ccc(Cl)cc1NC(=O)Nc1cccc2c(O)cccc12
inactive: [12] 96 % of control | [8] 107 % of control | [13] 100 % of control | [14] 107 % of control | [15] 96 % of control | [16] 103 % of control

O=[N+]([O-])c1ccc(Cl)c(OCCBr)c1
inactive: endpoint: mean survival time, dose: 100.0 mg/kg/injection, schedule: Q01DX009 (ip), vehicle: gum acacia 95 % of control | endpoint: mean survival time, dose: 200.0 mg/kg/injection, schedule: Q01DX009 (ip), vehicle: gum acacia 94 % of control | endpoint: mean survival time, dose: 400.0 mg/kg/injection, schedule: Q01DX009 (ip), vehicle: gum acacia 89 % of control

CC(C)OC(=S)SC(C(=O)c1ccccc1)c1ccccc1 (centres undefined)
inactive: [9] 91 % of control | [10] 91 % of control | [11] 91 % of control

COC(=O)c1cc([N+](=O)[O-])cc2ccccc12
inactive: [1] 99 % of control | [2] 105 % of control | [3] 96 % of control | [4] 94 % of control | [6] 97 % of control

Cc1cc([N+](=O)[O-])c(Nc2cccc(O)c2)c([N+](=O)[O-])c1
inactive: [1] 108 % of control | [2] 101 % of control | [3] 102 % of control | [4] 95 % of control | [5] 116 % of control | [6] 101 % of control

Cc1ccc(N=C2N(c3ccccc3)N(c3ccccc3)C2(c2ccccc2)c2ccccc2)cc1
inactive: [17] 92 % of control | [18] 88 % of control | [19] 88 % of control

O=C(/C=C\c1ccccc1)/C=C/c1ccccc1
inactive: [1] 90 % of control | endpoint: mean survival time, dose: 100.0 mg/kg/injection, schedule: Q01DX009 (sc), vehicle: olive oil, sesame oil, peanut oil 113 % of control | [2] 95 % of control | [3] 95 % of control | endpoint: mean survival time, dose: 200.0 mg/kg/injection, schedule: Q01DX009 (sc), vehicle: olive oil, sesame oil, peanut oil 98 % of control | [4] 98 % of control | endpoint: mean survival time, dose: 400.0 mg/kg/injection, schedule: Q01DX009 (sc), vehicle: olive oil, sesame oil, peanut oil 102 % of control | [6] 98 % of control

COC1=C(NCc2ccccc2)C(=O)C(OC)=C(NCc2ccccc2)C1=O
inactive: endpoint: mean survival time, dose: 50.0 mg/kg/injection, schedule: Q01DX001 (ip), vehicle: carboxymethylcellulose (CMC) 113 % of control | [17] 101 % of control | [1] 92 % of control | [2] 90 % of control | [18] 107 % of control | [3] 95 % of control | [4] 93 % of control | [19] 107 % of control | [5] 92 % of control | [6] 97 % of control

CNC(=O)Oc1cccc(NC(=O)C=C(C)C)c1
inactive: [20] 91 % of control | [21] 89 % of control

O=C1NC(=O)C2(CCc3ccc(N(CCCl)CCCl)cc32)N1 (centres undefined)
inactive: endpoint: median survival time, dose: 100.0 mg/kg/injection, schedule: Q01DX009 (ip), vehicle: Klucel (hydroxypropylcellulose) (HPC) 105 % of control

Cc1c([N+](=O)[O-])cc(C(C)(C)C)c(OC(=O)Nc2ccccc2)c1[N+](=O)[O-]
inactive: endpoint: mean survival time, dose: 12.5 mg/kg/injection, schedule: Q04DX003 (ip), vehicle: Klucel (hydroxypropylcellulose) (HPC) 93 % of control | endpoint: mean survival time, dose: 25.0 mg/kg/injection, schedule: Q04DX003 (ip), vehicle: Klucel (hydroxypropylcellulose) (HPC) 106 % of control | endpoint: mean survival time, dose: 50.0 mg/kg/injection, schedule: Q04DX003 (ip), vehicle: Klucel (hydroxypropylcellulose) (HPC) 95 % of control

CCOC(=O)C1(CCOC(C)=O)CCCCC1=O (centres undefined)
inactive: [17] 93 % of control | [18] 93 % of control | [19] 102 % of control

CCNC(=O)NC(=O)C(C)(C)Oc1ccc(Cl)cc1
inactive: endpoint: mean survival time, dose: 50.0 mg/kg/injection, schedule: Q01DX009 (ip), vehicle: saline with Tween-80 103 % of control | [20] 92 % of control | [21] 96 % of control

COC1=C(Nc2cccc(C)c2C)C(=O)C(OC)=C(Nc2cccc(C)c2C)C1=O
inactive: endpoint: mean survival time, dose: 50.0 mg/kg/injection, schedule: Q01DX001 (ip), vehicle: saline 97 % of control | [7] 103 % of control | [12] 111 % of control | [8] 98 % of control | [22] 115 % of control | [13] 96 % of control | [14] 91 % of control | [23] 103 % of control | [15] 90 % of control | [16] 91 % of control

FC(F)(F)c1ccc2c(c1)C1c3ccccc3C2c2ccccc21
inactive: [12] 98 % of control | [8] 100 % of control | [13] 100 % of control | [14] 98 % of control | [15] 91 % of control | [16] 100 % of control

N#CC1C(=O)NC(c2ccccc2)=CC1c1ccccc1 (centres undefined)
inactive: [7] 100 % of control | [22] 94 % of control | [23] 94 % of control

Cc1c(NC(=O)Nc2ccccc2F)c(=O)n(-c2ccccc2)n1C
inactive: [7] 101 % of control | endpoint: mean survival time, dose: 100.0 mg/kg/injection, schedule: Q01DX009 (ip), vehicle: acetone 86 % of control | [8] 112 % of control | [22] 95 % of control and 91 % of control | [14] 91 % of control | [23] 97 % of control and 98 % of control | [16] 95 % of control
